# Data reported in patent US20120035206A1, “PREPARATION AND APPLICATION OF NOVEL ANTIBACTERIAL AND ANTICANCER COMPOUNDS AND THEIR DERIVATIVES” (priority 2009, published 2012).
# How the values were obtained:
# Assay type in all cases: cell-based
# C. Krusei = assay: In vitro antibacterial (antifungal) test, two-fold dilution MIC; conditions: Pichia kudriavzevii, RPMI 1640, culture 2-7 days
# Procedure: (§1) In vitro antibacterial experiments of 25 compounds as anti-bacterial and anti-cancer compounds in the patent were tested using 14 kinds of bacteria. Tested bacteria: C. albicans, C. tropicalis, C. neoformans, E. floccosum, M. gypseum, A. niger, S. schenekn, C. parapsilosis, C. glabrata, C. Krusei, Trichoderma, Gibberella, Setrosphaeria turcica, Fusarium Oxysporum Vasinfectum. (Bacteria were from the Dermatology Hospital of Chinese Academy of Medical Sciences, Nanjing, China.)
# (§2) The Preparation of tested Bacteria solution was following: incubated Bacteria were added to 5 ml physiological saline, and then they were mashed and placed with ultrasound. The solution was fully mixed, and insoluble substances were removed. The treated solution was called the original bacterium solution. In the test, the bacteria concentration in the original bacterium solution was adjusted to […].
# (§3) Tested Methods: the tested compounds were dissolved in dimethyl sulfoxide. and the solution was diluted with sterile distilled water. And the distilled solution was added to sterilized RPMI 1640 medium. The concentration of the compounds were adjusted to 256, 128, 64, 32, 16, 8, 4, 2, 1, 0.5, 0.25, 0.125 ug*ml-1. Then the adjusted solutions were inoculated with tested bacteria, and the tested systems were placed in the constant temperature oven to culture for 2-7 days. The concentration at which there was no growing of fungi was taken as the minimum inhibitory concentration (MIC).
# C. albicans = assay: as above; conditions: Candida albicans, read-out: MIC C. albicas
# Procedure: as §1, §2, §3
# C. glabrata = assay: as above; conditions: Nakaseomyces glabratus, RPMI 1640, culture 2-7 days
# Procedure: as §1, §2, §3
# C. neoformans = assay: as above; conditions: Cryptococcus neoformans, RPMI 1640, culture 2-7 days
# Procedure: as §1, §2, §3
# C. parapsilosis = assay: as above; conditions: Lodderomyces parapsilosis, RPMI 1640, culture 2-7 days
# Procedure: as §1, §2, §3
# C. tropicalis = assay: as above; conditions: Candida tropicalis, RPMI 1640, culture 2-7 days
# Procedure: as §1, §2, §3
# S. schenekn = assay: as above; conditions: RPMI 1640, culture 2-7 days
# Procedure: as §1, §2, §3
# E. floccosum = assay: as above; conditions: Epidermophyton floccosum, RPMI 1640, culture 2-7 days
# Procedure: as §1, §2, §3
# [1] = system: Fusarium oxysporum vasinfectum; assay: as above; conditions: RPMI 1640, culture 2-7 days
# Procedure: as §1, §2, §3
# M. gypseum = assay: as above; conditions: Nannizzia gypsea, RPMI 1640, culture 2-7 days
# Procedure: as §1, §2, §3
# Setosphaeria turcica = assay: as above; conditions: Exserohilum turcicum, RPMI 1640, culture 2-7 days
# Procedure: as §1, §2, §3
# Terchoderma = assay: as above; conditions: Trichoderma, RPMI 1640, culture 2-7 days
# Procedure: as §1, §2, §3
# A375 = assay: In vitro anticancer MTT experiment; conditions: Homo sapiens, A-375, concentration 5 ug/ml, 48 h or 72 h, read-out: inhibition ratio A375
# Procedure: (§4) In vitro anticancer experiments of 25 compounds as anti-bacterial and anti-cancer compounds in the patent were tested. In the test, 14 kinds of cancer cells were used as tested cancer cells. And the results obtained by MTT method were shown in table 2 (the inhibition ratio was obtained when the concentration was 5 ug/ml). Tested Cancer Cells: SGC7901, HTB-38HT-29, CRL-2233NU-398, CRL-1469PANC-1, B0192, HTB-131MDA-453, CRL-1435PC-3, FTC133, AS24391, HTB-95637. (Cancer cells were from Chinese Military Academy of Medical Sciences). Cells Culture: Culture solution was composed of RPMI 1640 medium, 10% (VAT) Fetal calf serum and 0.01% L-glutamine. Cultured cells were maintained at 37° C. in an incubator with 5% CO2. The cells at logarithmic growth phase were used in the experiment. MTT Experiment: Single cell suspension was obtained by digesting cells with 0.25% trypsin. The cells at logarithmic growth phase were collected and seeded in a 96-well plate at a concentration of 6000-7000 cells per well. After culturing for 12 h at 37° C. in the incubator with 5% CO2, the cells were again incubated with the tested compounds of various concentrations for 48 h or 72 h. Pure cultures and cells without drug were taken as blank reference and negative reference, and 8 Wells of each group were taken. Twenty microliter of MTT (5 mg/mL) was added to each well, and the mixed solutions were incubation for 4 h. The formazan product was dissolved by dimethyl sulfoxide (DMSO, 150 μL), and the optical density (O.D.) was read at 570 nm. The Inhibition Ratio was calculated by the following formula: Inhibition Ratio=(Anegative control−Asample)/(Anegative control−Ablank control)
# AS24391 = assay: In vitro anticancer MTT experiment; conditions: concentration 5 ug/ml, 48 h or 72 h, read-out: inhibition ratio AS24391
# Procedure: as §4
# B01092 = assay: In vitro anticancer MTT experiment; conditions: concentration 5 ug/ml, 48 h or 72 h, read-out: inhibition ratio B01092
# Procedure: as §4
# CRL-1435PC-3 = assay: In vitro anticancer MTT experiment; conditions: concentration 5 ug/ml, 48 h or 72 h, read-out: inhibition ratio CRL-1435PC-3
# Procedure: as §4
# CRL-2233SNU-398 = assay: In vitro anticancer MTT experiment; conditions: concentration 5 ug/ml, 48 h or 72 h, read-out: inhibition ratio CRL-2233SNU-398
# Procedure: as §4
# FTC 133 = assay: In vitro anticancer MTT experiment; conditions: Homo sapiens, concentration 5 ug/ml, 48 h or 72 h, read-out: inhibition ratio FTC 133
# Procedure: as §4
# HTB-131MDA-MB-453 = assay: In vitro anticancer MTT experiment; conditions: concentration 5 ug/ml, 48 h or 72 h, read-out: inhibition ratio HTB-131MDA-MB-453
# Procedure: as §4
# HTB-38HT-29 = assay: In vitro anticancer MTT experiment; conditions: concentration 5 ug/ml, 48 h or 72 h, read-out: inhibition ratio HTB-38HT-29
# Procedure: as §4
# HTB-94 = assay: In vitro anticancer MTT experiment; conditions: concentration 5 ug/ml, 48 h or 72 h, read-out: inhibition ratio HTB-94
# Procedure: as §4
# HTB-95637 = assay: In vitro anticancer MTT experiment; conditions: concentration 5 ug/ml, 48 h or 72 h, read-out: inhibition ratio HTB-95637
# Procedure: as §4
# L1210 = assay: In vitro anticancer MTT experiment; conditions: Mus musculus, concentration 5 ug/ml, 48 h or 72 h, read-out: inhibition ratio L1210
# Procedure: as §4
# L428 = assay: In vitro anticancer MTT experiment; conditions: Homo sapiens, L-428, concentration 5 ug/ml, 48 h or 72 h, read-out: inhibition ratio L428
# Procedure: as §4
# CRL-1469PANC-1 = assay: In vitro anticancer MTT experiment; conditions: concentration 5 ug/ml, 48 h or 72 h, read-out: inhibition ratio CRL-1469PANC-1
# Procedure: as §4
# SGC7901 = assay: In vitro anticancer MTT experiment; conditions: Homo sapiens, SGC-7901, concentration 5 ug/ml, 48 h or 72 h, read-out: inhibition ratio SGC7901
# Procedure: as §4
SMILES,MIC (C. Krusei),MIC (C. albicans),MIC (C. glabrata),MIC (C. neoformans),MIC (C. parapsilosis),MIC (C. tropicalis),MIC (S. schenekn),MIC (E. floccosum),MIC [1],MIC (M. gypseum),MIC (Setosphaeria turcica),MIC (Terchoderma),inhibition at 5 µg/mL (AS24391),inhibition at 5 µg/mL (B01092),inhibition at 5 µg/mL (CRL-1435PC-3),inhibition at 5 µg/mL (HTB-38HT-29),inhibition at 5 µg/mL (HTB-94),inhibition at 5 µg/mL (HTB-95637),inhibition at 5 µg/mL (L1210),inhibition at 5 µg/mL (L428),further results
"O=C1/C(=C\O)CSc2ccc(F)cc21 [Compound 3, 6-fluorine-3-(hydroxylmethene)thiochroman-4-one]",32 µg/mL,32 µg/mL,64 µg/mL,16 µg/mL,32 µg/mL,32 µg/mL,64 µg/mL,,,,,,,,,,,,,,
"O=C1/C(=C/Cl)CSc2ccc(F)cc21 [Compound 7, (Z)-3-(chloromethylene)-6-fluorothiochroman-4-one]",16 µg/mL,4 µg/mL,16 µg/mL,16 µg/mL,8 µg/mL,16 µg/mL,2 µg/mL,4 µg/mL,32 µg/mL,8 µg/mL,16 µg/mL,8 µg/mL,58.3%,54.8%,51.2%,45.7%,65.4%,60.1%,79.8%,57.3%,inhibition at 5 µg/mL (A375): 56%; inhibition at 5 µg/mL (CRL-2233SNU-398): 49.9%; inhibition at 5 µg/mL (FTC 133): 52.6%; inhibition at 5 µg/mL (HTB-131MDA-MB-453): 48.6%
"Cc1cc2c(cc1F)SC/C(=C\Br)C2=O [Compound 9, (Z)-3-(bromomethylene)-7-fluoro-6-methylthiochroman-4-one]",4 µg/mL,64 µg/mL,64 µg/mL,1 µg/mL,8 µg/mL,32 µg/mL,32 µg/mL,32 µg/mL,64 µg/mL,64 µg/mL,32 µg/mL,64 µg/mL,57%,39.4%,36%,74.6%,65.6%,55.8%,89.5%,50.1%,inhibition at 5 µg/mL (CRL-1469PANC-1): 60.1%; inhibition at 5 µg/mL (CRL-2233SNU-398): 45.6%; inhibition at 5 µg/mL (HTB-131MDA-MB-453): 56.7%; inhibition at 5 µg/mL (SGC7901): 50.4%
"Cc1ccc(S/C=C2\CSc3ccc(F)cc3C2=O)cc1F [Compound 12, (Z)-6-fluoro-3-(((3-fluoro-4-methylphenyl)thio)methylene)thiochroman-4-one]",64 µg/mL,,,8 µg/mL,,,64 µg/mL,,16 µg/mL,,,,49%,48.4%,56.6%,43.2%,47.5%,60.5%,90.9%,56.8%,inhibition at 5 µg/mL (A375): 60.4%; inhibition at 5 µg/mL (CRL-1469PANC-1): 45.6%; inhibition at 5 µg/mL (FTC 133): 54.5%
"O=C1/C(=C/Cl)SCc2ccccc21 [Compound 14, (Z)-3-(chloromethylene)isothiochroman-4-one]",64 µg/mL,4 µg/mL,16 µg/mL,4 µg/mL,32 µg/mL,32 µg/mL,8 µg/mL,16 µg/mL,,4 µg/mL,,,36.6%,56.8%,48%,42.6%,45.6%,40.5%,78%,34.6%,inhibition at 5 µg/mL (A375): 45.5%; inhibition at 5 µg/mL (CRL-1469PANC-1): 40.6%; inhibition at 5 µg/mL (CRL-2233SNU-398): 58.9%; inhibition at 5 µg/mL (FTC 133): 30.4%; inhibition at 5 µg/mL (HTB-131MDA-MB-453): 56.7%; inhibition at 5 µg/mL (SGC7901): 50.6%
"Cc1ccc2c(c1)C(O)/C(=C/Cl)CS2 (centres unmarked) [Compound 17, (Z)-3-(chloromethylene)-6-methylthiochroman-4-ol]",16 µg/mL,16 µg/mL,32 µg/mL,16 µg/mL,16 µg/mL,4 µg/mL,32 µg/mL,16 µg/mL,,4 µg/mL,16 µg/mL,32 µg/mL,,,,,,,,,
"Cc1ccc2c(c1)C(O)/C(=C\Cl)CS2 (centres unmarked) [Compound 25, (E)-3-(chloromethylene)-6-methylthiochroman-4-ol]",16 µg/mL,4 µg/mL,8 µg/mL,16 µg/mL,16 µg/mL,,8 µg/mL,32 µg/mL,,16 µg/mL,16 µg/mL,,,,,,,,,,
"O=C1/C(=C\Cl)CSc2ncccc21 [Compound 27, (E)-3-(chloromethylene)-2H-thiopyrano[2,3-b]pyridin-4(3H)-one]",8 µg/mL,4 µg/mL,16 µg/mL,8 µg/mL,4 µg/mL,4 µg/mL,2 µg/mL,16 µg/mL,16 µg/mL,8 µg/mL,32 µg/mL,4 µg/mL,,,,,,,,,
